# Reference: paper PMC12019328, “Discovery of an ApoE4-targeted small-molecule SirT1 enhancer for the treatment of Alzheimer’s disease” (Scientific Reports, 2025)
# Key:
# SirT1 promoter [1] = test: ChIP analysis of SirT1 promoter occupancy in brain tissue of ApoE4-TR:5xFAD mice; format: in vivo; details: vs Veh
# Method: 17-371) following manufacturer's instructions. Brain was frozen to -80C, then powdered on dry
# ice and split for either RNA analysis or for the ChIP assay, approximately ~100mg powderized
# tissue was fixed in formaldehyde. For cultured cells in vitro, cells were fixed in each well and
# harvested by scraping. Samples were sonicated to break chromatin into 200-1000bp fragments
# (according to previously optimized conditions), using a Epishear programmable sonicator (Active
# Motif), and aliquots were subjected to immunoprecipitation with antibodies against either apoE4
# (Novus), RNA Polymerase (supplied in the Ez-ChIP kit), or mouse IgG (isotype matched).
# Immunoprecipitated chromatin was subjected to conditions that reversed the cross-links, and
# DNA was purified. The immunoprecipitated DNA was measured for the level of immuno-captured
# SirT1 gene promoter sequence using qPCR with PCR primers that bind flanking the SirT1 CLEAR
# sequence. PCR produced an amplicon of 125bp with the CLEAR site near one end, the CLEAR
# sequence is bold underlined in the following 125bp PCR amplicon:
# PCR amplification Ct values for apoE4 and RNAP were normalized to the levels obtained for
# IgG and further normalized to the level of input DNA. This level of immuno-captured DNA indicates
# the level of apoE4 or RNAP occupancy of CLEAR site region of the SirT1 gene promoter.
# Figure S7. SirT1 promoter binding by RNA polymerase and ApoE4. […]
# [2] = system: PRMT5 mRNA in Kelly cells; test: PRMT5 mRNA in Kelly neuroblastoma cells; format: cell-based, human; details: 5 µM, 24 h, vs DMSO
# Method: (§1) Human neuroblastoma ‘Kelly’ cells (genotype APOE3/APOE4) were plated in 96-well plates at 50K cells per well and were grown overnight in RPMI 1640 supplemented with 2 mM Glutamine, 10% FBS and 1% Pen-Strep. Cells were treated with 5 µM DDL-214, -218, or -219; or DMSO vehicle (n = 8 per compound). Twenty-four hours later, medium was removed, cells washed and lysed as described above for N2a-E4 cells.
# (§2) Total RNA was isolated from cells or brain tissue (Qiagen RNEasy kit). Total RNA (0.5–1.0 µg) mRNA was then converted to cDNA (SuperScript™ III First-Strand Synthesis SuperMix kit; Thermo Fisher), and gene mRNA levels were measured using a gene-specific qRT-PCR Taqman assays (Thermo Fisher). Gene mRNA levels were normalized to GAPDH mRNA levels measured either in the same cDNA sample or in the same qPCR reaction using multiplexing of gene-of-interest/VIC and GAPDH/FAM, normalized by the delta-delta-Ct method.
# [3] = system: PPP2r5e mRNA in Kelly cells; test: PPP2r5e mRNA in Kelly neuroblastoma cells; format: cell-based, human; details: 5 µM, 24 h, vs DMSO
# Method: as §1, §2
# SirT1 promoter [4] = test: ChIP analysis of SirT1 promoter occupancy in Kelly cells; format: cell-based, human; details: vs DMSO
# Method: Correlations between gene mRNAs in DDL-214, -218, and -219-treated Kelly cells
# As described in the main manuscript, human Kelly neuroblastoma cells were treated with
# racemate DDL-214, and enantiomers DDL-218 and -219. Levels of PRMT5, NFYb, SirT1, and
# PPP2r5e mRNAs were then determined. The correlations between these gene mRNAs for all
# Data points are graphed by
# treatment in Figure S6D-F and their significant correlation (Pearson correlation 0.914) in
# bioinformatic analysis of gene co-expression of 2300 human brain RNAseq samples performed
# at Genefriends.org (Raina, et al. (2022) GeneFriends: gene co-expression databases and tools
# for humans and model organisms, Nucleic Acids Research, 2022;
# Figure S6. Correlation of gene mRNA levels in DDL-treated Kelly cells. All data points are shown for (A)
# PRMT5 vs. NFYb, (B) SirT1 vs. PRMT5, and (C) PPP2r5E vs. SirT1. R2 values are shown on the upper
# right of each panel. (D-F) The same data with treatment (DDL-214, -218, or -219) indicated by symbols
# shown below panel (E). The statistical 'r' value and significance determined by Pearsons Correlation
# ChIP assay for SirT1 gene promoter occupancy by ApoE4 and RNA polymerase […]
# promoter by ApoE4 or RNA Polymerase (RNAP) was determined using an EZ-ChIP kit (Millipore […]
# DNA was purified. The immunoprecipitated DNA was measured for the level of immuno-captured […]
# [5] = target: hERG (human Ether-a-go-go-Related Gene) (Homo sapiens, UniProt Q12809); test: hERG
# Sequence of hERG (human Ether-a-go-go-Related Gene) (Q12809 whole entry): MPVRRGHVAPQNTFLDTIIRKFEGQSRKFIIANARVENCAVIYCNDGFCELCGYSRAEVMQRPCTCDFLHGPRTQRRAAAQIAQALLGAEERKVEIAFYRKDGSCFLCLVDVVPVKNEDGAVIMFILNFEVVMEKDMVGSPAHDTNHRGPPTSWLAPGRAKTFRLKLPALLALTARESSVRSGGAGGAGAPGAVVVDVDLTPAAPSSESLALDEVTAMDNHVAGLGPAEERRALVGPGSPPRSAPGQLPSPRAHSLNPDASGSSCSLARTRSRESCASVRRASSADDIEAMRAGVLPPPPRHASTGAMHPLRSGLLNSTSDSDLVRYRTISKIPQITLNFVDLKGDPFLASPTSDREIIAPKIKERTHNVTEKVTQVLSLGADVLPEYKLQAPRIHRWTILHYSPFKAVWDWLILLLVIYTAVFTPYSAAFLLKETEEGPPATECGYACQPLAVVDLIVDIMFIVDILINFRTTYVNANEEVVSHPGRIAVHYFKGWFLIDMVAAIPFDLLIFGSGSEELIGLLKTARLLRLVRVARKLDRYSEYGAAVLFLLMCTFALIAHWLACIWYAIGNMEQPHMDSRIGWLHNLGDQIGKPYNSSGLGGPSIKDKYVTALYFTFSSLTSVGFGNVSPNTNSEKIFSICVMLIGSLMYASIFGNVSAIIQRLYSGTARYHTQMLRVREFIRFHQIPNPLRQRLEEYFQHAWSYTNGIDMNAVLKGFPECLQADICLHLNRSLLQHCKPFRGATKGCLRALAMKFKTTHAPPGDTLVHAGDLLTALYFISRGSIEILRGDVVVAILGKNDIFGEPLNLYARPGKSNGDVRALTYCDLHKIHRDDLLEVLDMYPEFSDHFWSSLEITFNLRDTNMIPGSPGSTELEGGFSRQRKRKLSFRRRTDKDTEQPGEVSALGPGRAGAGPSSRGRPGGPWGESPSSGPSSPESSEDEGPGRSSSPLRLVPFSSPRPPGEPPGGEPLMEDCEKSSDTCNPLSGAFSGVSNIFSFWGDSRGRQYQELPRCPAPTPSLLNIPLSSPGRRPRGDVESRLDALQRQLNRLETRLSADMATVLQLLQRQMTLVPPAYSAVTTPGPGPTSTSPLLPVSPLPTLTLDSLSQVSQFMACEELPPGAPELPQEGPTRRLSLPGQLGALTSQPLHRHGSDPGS
smiles,measurement,setting,value
CC(N)C(=O)OC(C)(C)Cc1ccncc1 (stereo not shown) [DDL-218],ApoE4 binding to the SirT1 promoter,SirT1 promoter [1],"lower, but the effect was not significant"
same,RNAP binding to the SirT1 promoter,SirT1 promoter [1],significantly increased
same,PRMT5 expression (mRNA),[2],significantly increases PRMT5 expression
same,PPP2r5e mRNA,[3],significantly increased
same,ApoE4 binding to SirT1 promoter,SirT1 promoter [4],"lower, but the effect was not significant"
same,RNAP occupancy of SirT1 promoter,SirT1 promoter [4],increased
same,EC50,[5],> 10 µM
